According to article PMC8597734 (Antimicrobial Agents and Chemotherapy, 2021):
Values after ≈ are worked out from the molar mass of the structure shown. Where two headings read alike, the source gives them in different places.

Columns and labels:
[1] = tested on: M. abscessus subsp. bolletii M232; experiment: microbe, parasite or virus in culture; format: cell-based, Mycobacterium abscessus; conditions: Mycobacteroides abscessus, 72 h
[2] = tested on: M. abscessus subsp. abscessus M9; experiment: microbe, parasite or virus in culture; format: cell-based, Mycobacterium abscessus; conditions: Mycobacteroides abscessus, 72 h
[3] = tested on: M. abscessus Bamboo RM3 (GyrA D91N); experiment: microbe, parasite or virus in culture; format: cell-based, Mycobacterium abscessus
[4] = tested on: M. abscessus Bamboo biofilms; experiment: Biofilm growth inhibition assay (biofilm MIC and MBC); format: cell-based, Mycobacterium abscessus
Method: The biofilm growth inhibition assay was performed as previously described ([52]). Innovotech MBEC 96-well Biofilm Assay Plates (Innovotech 19111, Edmonton, AB, Alberta, Canada) were used, and the supplier’s manual was followed with minor modifications. Midlog phase M. abscessus Bamboo precultures (OD600 = 0.4–0.6) were spun down at 3,200 × g for 10 min at 25°C and washed with 7H9 medium without Tween 80 (7H9nt). Bacteria were resuspended into 25 ml 7H9nt to an OD600 = 0.0125 (1.0 × 10^6 CFU/ml). 150 μl of bacteria suspension was dispensed into each well of MBEC multititer plates and the polystyrene protrusions (pegs) of the MBEC lid were inserted into the culture-containing wells for 24 h at 37°C on an orbital shaker at 110 rpm to allow attachment of the bacteria to the pegs and initiation of biofilm growth. The lids with the pegs (now with 1-day-old biofilms) were transferred to new MBEC multititer plates containing 150 μl of fresh 7H9nt medium per well without bacteria (0 h time point). After that, the lids with biofilm-laden pegs were transferred once a day to a new multititer plate containing fresh 7H9nt medium. To measure growth of the biofilm formed on the peg, the pegs were washed in 200 μl of 7H9nt medium before they were aseptically removed and placed in 1.7 ml microcentrifuge tubes (VWR 87003-294, Rador, PA, United States) containing 500 μl PBS/Tween 80. The microcentrifuge tubes were vigorously vortexed at 2,000 rpm for 90 s at 25°C to detach the bacteria from the pegs before samples were serially diluted and plated for the determination of CFU/peg. […] The average drug-free biofilm growth was calculated by subtracting the average 24 h CFU/peg value from the average 72 h CFU/peg value for the untreated control pegs. The biofilm MIC was defined as the lowest drug concentration that reduced the CFU/peg by 90% relative to the average drug-free biofilm growth.

[5] = tested on: M. abscessus subsp. abscessus ATCC 19977; experiment: microbe, parasite or virus in culture; format: cell-based, Mycobacterium abscessus; conditions: Mycobacteroides abscessus
[6] = tested on: M. abscessus subsp. abscessus M404; experiment: microbe, parasite or virus in culture; format: cell-based, Mycobacterium abscessus; conditions: Mycobacteroides abscessus, 72 h
[7] = tested on: M. abscessus ATCC 19977 MXF_R1 (GyrA D96Y); experiment: microbe, parasite or virus in culture; format: cell-based, Mycobacterium abscessus; conditions: Mycobacteroides abscessus, ATCC19977
[8] = tested on: M. abscessus Bamboo RM2 (GyrA D91N); experiment: microbe, parasite or virus in culture; format: cell-based, Mycobacterium abscessus
[9] = Stability in microsomes (intrinsic clearance); format: in vitro ADME, mouse
Method: (§1) Intrinsic clearance (CLi) values were determined in mouse and human liver microsomes. Test compounds (final concentration 0.5 μM) were incubated at 37°C for 30 min in 50 mM potassium phosphate buffer (pH 7.4) containing 0.5 mg microsomal protein/ml. The reaction was started by addition of cofactor NADPH. At 10 different time points (from zero to 30 min) an aliquot (90 μl) was taken, quenched with acetonitrile-methanol containing an appropriate internal standard, centrifuged and analyzed by LC-MS/MS. The intrinsic clearance (CLi) was determined using the following equation: CLi=k*(ml of incubation/mg microsomal protein)*(mg microsomal protein/g liver)
(§2) Where k is the turn-over rate constant of the ln (% remaining compound) versus time regression and mg microsomal protein/g liver is 52.5 for both mouse and human.

[10] = ChromlogD assay; format: physicochemical; conditions: reversed phase HPLC column (Gemini NX C18)
Method: The Chromatographic Hydrophobicity Index (CHI) values are measured using reversed phase HPLC column (50 × 2 mm […] Gemini NX C18, Phenomenex, UK) with fast acetonitrile gradient at starting mobile phase of pHs 2, 7.4 and 10.5. CHI values are derived directly from the gradient retention times by using a calibration line obtained for standard compounds. The CHI value approximates to the volume % organic concentration when the compound elutes. CHI is linearly transformed into ChromlogD by least-square fitting of experimental CHI values to calculated ClogP values for over 20K research compounds using the following formula: ChromlogD = 0.0857CHI-2.00. The average error of the assay is ±3 CHI unit or ±0.25 ChromlogD.

[11] = tested on: M. intracellulare ATCC 13950; experiment: microbe, parasite or virus in culture; format: cell-based; conditions: Mycobacterium intracellulare, ATCC13950, 96 h
[12] = tested on: M. abscessus subsp. abscessus M422; experiment: microbe, parasite or virus in culture; format: cell-based, Mycobacterium abscessus; conditions: Mycobacteroides abscessus, 72 h
[13] = tested on: M. abscessus subsp. massiliense M111; experiment: microbe, parasite or virus in culture; format: cell-based, Mycobacterium abscessus; conditions: Mycobacteroides abscessus, 72 h
[14] = tested on: nutrient-starved, nonreplicating M. abscessus Bamboo; experiment: MBC determination under nutrient-starved conditions; format: cell-based, Mycobacterium abscessus; conditions: 48 h drug exposure
Method: The determination of drug bactericidal activity against nutrient-starved M. abscessus cultures was performed as previously described ([52]). […] Washed culture was then diluted with PBS/Tyloxapol to OD600 = 0.2 (1.8 × 10^7 CFU/ml). […] Appropriate concentrations of drugs up to 100 μM were added to the tubes prior to incubation at 37°C on a tilted rack in an orbital shaker at 220 rpm.

[15] = Stability in microsomes (intrinsic clearance); format: in vitro ADME, human
Method: as §1, §2

[16] = tested on: M. abscessus subsp. abscessus M337; experiment: microbe, parasite or virus in culture; format: cell-based, Mycobacterium abscessus; conditions: Mycobacteroides abscessus, 72 h
[17] = tested on: M. abscessus Bamboo; experiment: MIC and MBC determination in culture tubes (planktonic); format: cell-based, Mycobacterium abscessus; conditions: Mycobacteroides abscessus

COc1cnc2ccc(=O)n(CCN3CCC(NCc4cnc(CO)c(Cl)c4)CC3)c2c1 [EC/11716]
MIC [1]: 2.5 µM (≈ 1.14 µg/mL)
MIC [2]: 2.9 µM (≈ 1.33 µg/mL)
MIC [3]: >100 µM
MIC ([3]; Mycobacteroides abscessus): > 100 µM
increase of biofilm MBC relative to planktonic MBC ([4]; M. abscessus Bamboo biofilm vs planktonic bacteria): 2 fold
MBC ([4]; Mycobacteroides abscessus, Biofilm, M. abscessus Bamboo, 10-fold reduction of CFU/peg vs 24 h): 6.3 µM (≈ 2.89 µg/mL)
MIC ([4]; Mycobacteroides abscessus, Biofilm, M. abscessus Bamboo, 90% reduction of CFU/peg relative to drug-free biofilm growth, 48 h): 0.78 µM (≈ 0.357 µg/mL)
MIC ([5]; ATCC19977): 1.9 µM (≈ 0.87 µg/mL)
MIC ([5]; ATCC19977, 72 h): 1.8 µM (≈ 0.824 µg/mL)
MIC [6]: 2.6 µM (≈ 1.19 µg/mL)
MIC [7]: ≤ 10 µM
MIC [8]: >100 µM
MIC ([8]; Mycobacteroides abscessus): > 100 µM
Mouse In vitro CLint ([9]; mouse hepatic microsomes, free base form): 1.6 ml/min/g tissue
mouse microsomal clearance ([9]; mouse microsomes): 1.6 ml/min/g protein
chromatographic logD ([10]; pH 7.4, read-out: ChromLogD pH 7.4): 1.73
chromatographic logD ([10]; read-out: LogD): 1.74
MIC [11]: 3.3 µM (≈ 1.51 µg/mL)
MIC [12]: 1.8 µM (≈ 0.824 µg/mL)
MIC [13]: 4.9 µM (≈ 2.24 µg/mL)
MBC [14]: >100 µM
MBC ([14]; Mycobacteroides abscessus): > 100 µM
Human In vitro CLint ([15]; human hepatic microsomes, free base form): < 0.3 ml/min/g tissue
Human microsomal clearance ([15]; human microsomes): < 0.3 ml/min/g protein
MIC [16]: 2.4 µM (≈ 1.1 µg/mL)
MBC ([17]; 0 h, 10-fold reduction in CFU/ml vs day 0): 3.1 µM (≈ 1.42 µg/mL)
MIC ([17]; 48 h, day 2): 1.5 µM (≈ 0.687 µg/mL)
